# Publication PMC9312196, “Enzymatic Biosynthesis of Simple Phenolic Glycosides as Potential Anti-Melanogenic Antioxidants” (Antioxidants, 2022)
# Where “and” joins values, the source holds several entries; their conditions need not be identical. Equal values may be shown once. Read-outs that look alike come from different tables or passages of the source.
# Columns and labels:
# [1] = test system: intracellular ROS in TBHP-induced B16F10 cells; experiment: DCFDA cellular ROS detection assay in TBHP-induced B16F10 cells; format: cell-based, murine; details: 5.0, 10 and 20 μM tested
# Procedure: The intracellular reactive oxygen species (ROS) level was quantitatively determined using the dichlorofluorescin diacetate (DCFDA) cellular ROS detection assay kit (ab113851, Abcam, Cambridge, UK), according to the manufacturer’s instructions. Briefly, B16F10 cells were seeded in a 24-well plate at a density of 2 × 10^3 cells/well. The cells were washed three times using PBS and subjected to staining with 20 μM DCFDA in PBS for 20 min at 37 °C under dark conditions. After staining, the cells were washed with PBS again and incubated with 50 μM TBHP solution (Sigma-Aldrich, St. Louis, MO, USA). Cells were treated time-dependently (10, 30 min and 1 h) with the indicated concentrations of SPs and their glycosides in 0.1% bovine serum albumin containing culture media after DCFDA incubation. The ROS level was analyzed by a fluorescence microplate reader (SpectraMax Gemini XPS/EM, Molecular Devices, Sunnyvale, CA, USA) set at an excitation wavelength of 485 nm and an emission wavelength of 545 nm. Relative fluorescence intensity of controls was equated to 100%, with treatment conditions estimated proportionally.
# The in vitro antioxidant activity of SP aglycones and their corresponding glycosides was evaluated through their DPPH-driven radical scavenging abilities in comparison with a well-known antioxidant, L-ascorbic acid. […] Although the mean IC50 values of HPP2G and HPP2DG appear to be a little lower than those of HPP3G and HPP3DG, respectively, there was, however, no statistically significant difference found within (also between) these glycoside groups. Next, we implemented a DCFDA cell-based ROS detection assay to determine whether the SP aglycones and their glycoside analogs function in vivo as antioxidants against intracellular ROS synthesis in the above-described B16F10 cells or not. The TBHP-induced cells were further incubated with different concentrations (5.0, 10 and 20 μM) of SPs and their glycosides for varied time periods (10, 30 min and 1 h).
# [2] = biological target: T1, tyrosinase (mushroom origin) (Agaricus bisporus, UniProt C7FF04); experiment: In vitro tyrosinase inhibition with L-tyrosine as substrate; format: biochemical; details: for IC50: mushroom tyrosinase, L-tyrosine substrate, read-out: tyrosinase inhibitory IC50; for fold higher tyrosinase inhibitory effect than kojic acid: ratio of IC50 values vs kojic acid
# T1 construct: purchased Sigma-Aldrich
# Procedure: The in vitro inhibitory effects of SPs and their glycosides towards tyrosinase (Sigma-Aldrich; mushroom origin; 2000 Unit/mL) activities were determined using L-tyrosine as a substrate. Briefly, the reaction mixtures, comprising 100 μL phosphate buffer (pH 6.8, 100 mM), 20 μL of tyrosinase (250 U/mL) and 20 μL of varying concentrations of SPs and their glycosides (in DMSO), were preincubated at 30 °C for 10 min.
# [3] = biological target: T2, porcine pancreas elastase (Sus scrofa, UniProt P00772); experiment: In vitro elastase inhibition with AAAPVN substrate; format: biochemical; details: read-out: elastase inhibitory IC50
# T2 construct: purchased Sigma-Aldrich; host or cells: porcine pancreas
# Procedure: The in vitro inhibitory effects of SPs and their glycosides on elastase activity (known as anti-wrinkle bioactivities) were assessed using porcine pancreas elastase (Sigma-Aldrich). Its synthetic substrate AAAPVN (Sigma-Aldrich) was dissolved in phosphate buffer (pH 8.0, 200 mM). In each well of a 96-well microplate, the above elastase (20 μL) was mixed with the SPs and their glycosides in the phosphate buffer (150 μL) and then pre-incubated at 25 °C for 15 min prior to substrate AAAPVN (30 μL) supplementation.
# [4] = DPPH free radical scavenging assay (in vitro antioxidant activity); details: 100 μM DPPH, 30 °C, 15 min
# Procedure: DPPH (1,1-diphenyl-2-picryl-hydrazyl-hydrate) free radical scavenging assay was employed for determining the in vitro antioxidant activity of SP aglycones and their generated glycosides; L-ascorbic acid was utilized as a positive control whereas DMSO only was used as negative control. The antioxidant activities were expressed as IC50 value (as the concentration of an antioxidant at which 50% of inhibition of free radicals). In brief, 1.9 mL of the 100 μM DPPH reagent (in MeOH) was added into 0.1 mL of each sample diluted within 0.1 to 2 mM range (0.1, 0.2, 0.5, 1.0 and 2.0 mM dissolved in DMSO). After being mixed well by shaking for 5 s, the mixtures were then incubated at 30 °C for 15 min, followed by measuring absorbance with a microplate reader at 515 nm.
# [5] = test system: melanin biosynthesis in B16F10 murine melanoma cells; experiment: Inhibition of α-MSH-induced cellular melanin biosynthesis in B16F10 cells; format: cell-based; details: fixed 20 μM treatments, 48 h, 2 μM α-MSH
# Procedure: The inhibitory effects of SPs and their glycosides towards cellular melanin biosynthesis were examined using the above-described B16F10 murine melanoma cells. After 24 h seed cultivation in a 24-well plate, these cells were treated with the indicated concentrations of SPs and their glycosides for a further 48 h in the presence of 2 μM α-melanocyte stimulating hormone (α-MSH, Sigma-Aldrich). After washing twice with chilled Dulbecco’s PBS supplemented with calcium chloride and magnesium chloride, the resulting cells were treated with trypsin-EDTA solution (Sigma-Aldrich) to recover melanoma cells. After centrifugation at 1000× […] for 3 min, the cell pellet recovered was dissolved in 100 μL of 1 M NaOH solution (containing 10% DMSO) at 55 °C for 1 h. The melanin content was determined by the absorbance at 405 nm using a microplate reader according to the calibration curve obtained from melanin (Sigma-Aldrich) standards, and melanin synthesis inhibitory activities were expressed as the percentage inhibition of cellular melanin synthesis in the above assay; α-arbutin was used as positive control, while DMSO only was used as negative control.
# [6] = test system: recombinant StSPGT glycosyltransferase; experiment: Michaelis-Menten kinetics of recombinant StSPGT glycosyl transfer; format: biochemical, Streptomyces tenjimariensis ATCC 31603
# Text: (§1) To learn more details about the enzymatic function of a recombinant StSPGT, we investigated and determined its bio-catalytic properties using two nucleotide sugars as the glycosyl donor substrates; the production velocities of the corresponding glycosides were plotted against the varied glycosyl donor concentrations, […] with fixed acceptor concentrations. […]
# (§2) the pGEM T-Easy vector (Promega, Madison, WI, USA) and transformed into E. coli XL1-Blue strain (Stratagene, La Jolla, CA, USA). The resultant plasmid obtained from was sequenced; the amplified ORF of interest (annotated as StSPGT) was deposited as GenBank Accession No.
# The NdeI/XhoI-digested fragment excised from the aforementioned pGEM T-Easy vector was cloned into the same sites of the expression vector pET-28a(+) (Novagen, San Diego, CA, USA) and expressed as an N-terminal fusion protein with an His6 tag in E. coli BL21(DE3) strain (selected with […] kanamycin). After induction using 0.5 mM IPTG (Sigma-Aldrich) followed by an overnight incubation at 22°C, the cells were harvested and then disrupted by ultrasonication. The His6-tagged protein from the lysate was purified with TALON-metal affinity resin (Clontech, Mountain View, CA, USA) equilibrated with 50 mM phosphate buffer (0.3 M NaCl, 20 mM imidazole) and incubated at 4°C for 1 hr. After 5 min of refrigerated centrifuge at 2000 rpm, the resin was introduced into a disposable column and washed with phosphate buffer containing 20 mM imidazole, equivalent to 8 times the amount of the resin. Finally, recombinant […]
# imidazole . The protein concentration was determined according to the Bradford method and the purified StSPGT was stored at −20°C prior to enzymatic reactions.
# In vitro Enzymatic GT Reactions and Its Kinetic Studies
# After dissolving two SP acceptor substrates, including HPP2 and HPP3, in methanol at 100 mM, we diluted them with a reaction buffer solution (50 mM phosphate buffer, 10 mM magnesium chloride and 1 mg/mL bovine serum albumin; pH 7.4) to the final concentration of 1 mM. Then we added 30 μM StSPGT glycosyltransferase along with four different nucleotide-activated glycosyl […]
# GT reaction at 30°C for 30 min. After reaction, an equal volume of ethyl acetate was immediately added to quench the reaction. The organic solvent layer was evaporated to dryness at 40°C by […]
# vacuum centrifugation (EYELA, Tokyo, Japan), and finally reconstituted in methanol prior to HPLC-tandem mass spectrometric (MS/MS) analysis.
# For the determination of the kinetic parameters for each SP acceptor substrate, the concentration of glycosyl donor was fixed at 2 mM, while the concentration of SP was varied from […]
# [7] = set-up: method as in PMID 35453457; details: read-out: DPPH radical scavenging IC50; cited from earlier work
# [8] = test system: T3, StSPGT; experiment: Michaelis-Menten kinetics of glycosyl transfer by HPLC-MS/MS product quantitation, donor varied 0.1-1.2 mM at fixed 1.0 mM acceptor HPP2, 50 mM phosphate pH 7.4, 10 mM MgCl2, 30 °C.; format: biochemical; details: SD, n = 3
# T3 construct: recombinant, N-terminal His6 tag, pET-28a(+), expressed in E. coli BL21(DE3)
# Text: as §1, §2
# (§3) The NdeI/XhoI-digested fragment excised from the aforementioned pGEM T-Easy vector was cloned into the same sites of the expression vector pET-28a(+) (Novagen, San Diego, CA, USA) and expressed as an N-terminal fusion protein with an His6 tag in E. coli BL21(DE3) strain (selected with […] kanamycin). After induction using 0.5 mM IPTG (Sigma-Aldrich) followed by an overnight incubation at 22°C, the cells were harvested and then disrupted by ultrasonication. […]
# (§4) imidazole . The protein concentration was determined according to the Bradford method and the purified StSPGT was stored at −20°C prior to enzymatic reactions. […]
# [9] = test system: T3, StSPGT; experiment: Michaelis-Menten kinetics of glycosyl transfer by HPLC-MS/MS product quantitation, donor varied 0.1-1.2 mM at fixed 1.0 mM acceptor HPP3, 50 mM phosphate pH 7.4, 10 mM MgCl2, 30 °C.; format: biochemical; details: SD, n = 3
# Text: as §1, §2, §3, §4
# [10] = test system: B16F10 murine melanoma cells; experiment: MTT cytotoxicity assay on B16F10 cells; format: cell-based; details: 48 h treatment, highest 20 mM concentration
# Procedure: The cytotoxic effects of SP aglycones and their glycosides on B16F10 cells was determined using a conventional MTT assay. B16F10 murine melanoma cells were routinely maintained in Dulbecco’s modified Eagle’s medium (DMEM) (Gibco, New York, NY, USA) supplemented with 10% heat-inactivated fetal bovine serum (Gibco), 100 units/mL penicillin and 100 μg/mL streptomycin (Gibco) at 37 °C under humidified 5% CO2 atmosphere. For the assay, these B16F10 cells were seeded in advance in 24-well plastic tissue culture plates at a density of 2 × 10^3 cells/well. After 24 h cultivation, the cells within individual wells were treated with the indicated concentrations of SPs and their glycosides for 48 h. The cells were incubated with MTT solution for additional 4 h in the dark, and the reduced formazan crystals were then dissolved in DMSO; the DMSO percentage in the media was kept below 0.5%. The resulting mixture was transferred to a 96-well microplate, and then the absorbance was measured at 570 nm using a SpectraMax microplate reader (Molecular Devices, Sunnyvale, CA, USA).
# […]. The treatment concentrations of SP aglycones and their glycosides for the bioassays were selected in advance by monitoring their cytotoxicity against the B16F10 murine melanoma cell line using α-arbutin as the reference. […]
# [11] = test system: B16F10 murine melanoma cells; set-up: method as in PMID 28467382; details: concentrations less than 5.0 mM; cited from earlier work
# T2 sequence (P00772 27-266): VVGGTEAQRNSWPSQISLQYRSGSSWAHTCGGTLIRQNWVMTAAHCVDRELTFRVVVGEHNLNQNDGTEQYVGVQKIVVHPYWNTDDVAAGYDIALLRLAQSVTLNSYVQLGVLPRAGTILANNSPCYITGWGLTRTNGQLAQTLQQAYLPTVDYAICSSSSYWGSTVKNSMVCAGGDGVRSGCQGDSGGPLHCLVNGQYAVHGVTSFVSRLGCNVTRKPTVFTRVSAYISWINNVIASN
# T1 sequence (C7FF04 1-392 limits assumed): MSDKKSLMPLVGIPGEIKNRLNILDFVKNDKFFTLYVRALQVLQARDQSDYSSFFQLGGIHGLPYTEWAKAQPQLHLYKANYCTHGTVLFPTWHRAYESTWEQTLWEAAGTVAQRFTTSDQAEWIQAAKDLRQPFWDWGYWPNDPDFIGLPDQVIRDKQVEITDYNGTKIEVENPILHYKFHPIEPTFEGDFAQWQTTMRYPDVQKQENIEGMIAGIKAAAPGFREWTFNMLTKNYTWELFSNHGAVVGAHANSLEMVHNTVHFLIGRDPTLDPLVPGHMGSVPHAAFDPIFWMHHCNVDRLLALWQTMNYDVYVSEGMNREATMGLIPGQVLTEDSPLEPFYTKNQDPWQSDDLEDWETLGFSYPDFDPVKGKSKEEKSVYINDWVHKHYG
Structure (SMILES),maximal ROS-scavenging activity [1] [%],IC50 [2] [µM],IC50 [3] [µM],IC50 [4] [µM],inhibition of α-MSH-induced intracellular melanin biosynthesis [5],other results
"CC(Cc1ccc(O)cc1)O[C@@H]1C[C@@H](O)[C@H](O)[C@@H](CO)O1 (stereo partly drawn) [HPP2DG, hydroxyphenyl-2-propanoyl-O-α-2″-deoxyglucoside]",54.3,13.8,25.3,–,–,–
"CC(Cc1ccc(O)cc1)O[C@H]1O[C@H](CO)[C@@H](O)[C@H](O)[C@H]1O (stereo partly drawn) [HPP2G, hydroxyphenyl-2-propanoyl-O-α-glucoside]",52.0,14.8,22.1,–,–,–
CC(O)Cc1ccc(O)cc1 (stereo not shown) [HPP2],–,11.6,95.3,18.5,50.3%,fold higher tyrosinase inhibitory effect than kojic acid [2]: about 6.6 fold; kcat ([6]; donor TDP-2′dGlc): 0.2155 ± 0.0363 s⁻¹; kcat ([6]; donor UDP-Glc): 0.3235 s⁻¹ and 0.3235 ± 0.0537 s⁻¹
CCC(O[C@@H]1C[C@@H](O)[C@H](O)[C@@H](CO)O1)c1ccc(O)cc1 (stereo partly shown) [HPP3DG],45.7,30.9,30.7,–,–,–
CCC(O[C@H]1O[C@H](CO)[C@@H](O)[C@H](O)[C@H]1O)c1ccc(O)cc1 (stereo partly shown) [HPP3G],48.9,29.1,31.5,–,–,–
CCC(O)c1ccc(O)cc1 (stereo not shown) [HPP3],–,23.4,99.1,19.3,21.7%,fold higher tyrosinase inhibitory effect than kojic acid [2]: ~3.3 fold; kcat ([6]; donor TDP-2′dGlc): 0.1865 ± 0.0372 s⁻¹; kcat ([6]; donor UDP-Glc): 0.2812 s⁻¹ and 0.2812 ± 0.0497 s⁻¹
"O=C1O[C@H]([C@@H](O)CO)C(O)=C1O [L-ascorbic acid, reference compound]",–,–,–,23,–,IC50 [7]: 22 µM
"Cc1cn([C@H]2C[C@H](O)[C@@H](COP(=O)(O)OP(=O)(O)O[C@@H]3C[C@@H](O)[C@H](O)[C@@H](CO)O3)O2)c(=O)[nH]c1=O [TDP-2′dGlc, thymidine diphosphate-2′-deoxyglucose]",–,–,–,–,–,Km [8]: 0.41 ± 0.07 mM; Km [9]: 0.5 ± 0.09 mM
"Oc1ccc(O)cc1 [hydroquinone, reference compound]",–,10.3,–,–,–,–
OC[C@H]1O[C@H](Oc2ccc(O)cc2)[C@H](O)[C@@H](O)[C@@H]1O [α-arbutin],–,–,–,–,about 20.3%,change of cell viability [10]: less than 5 % of the control; cytotoxicity for the B16F10 cells [11]: no cytotoxicity
